System: angioedema in CSU patients
Assay: Phase 2 CSU study: angioedema activity score over 7 days (AAS7)
Format: in vivo, human
Details: 400 mg QPM; for AAS7 = 0, Non-responder n (%) / AAS7 = 0, OR (95% CI) for rilzabrutinib vs. placebo / AAS7 = 0, RRD (%) for rilzabrutinib vs. placebo (95% CI) / AAS7 Post-baseline Mean (SD) / Participants with AAS7 = 0, Responder n (%) / AAS7 % Change difference for rilzabrutinib vs. placebo LS Mean (95% CI) / AAS7 % Change from baseline LS Mean (SE) / AAS7 Change difference for rilzabrutinib vs. placebo LS Mean (95% CI) / AAS7 Change from baseline LS Mean (SE): angioedema at baseline; for Non-responder n (%), AAS7 = 0 / OR (95% CI) for rilzabrutinib vs. placebo, AAS7 = 0 / RRD (%) for rilzabrutinib vs. placebo (95% CI), AAS7 = 0 / Responder n (%), AAS7 = 0: outlier removed
Text: The study comprises a 12 week, randomized, double-blind, placebo-controlled, multi-center, dose-ranging efficacy and safety phase, followed by a 40 week open label extension (OLE) phase (see FIG. 1). The study consists of three phases and an optional OLE phase. […] The weekly angioedema activity score (AAS7) was proposed as a tertiary endpoint. […] Patients were to complete the AAS using the e-diary. The e-diary was to be used once daily on the same time of each day recording of participant's answers to the angioedema activity score over 7 days (AAS7) questionnaire.

## CC(C)(C=C(C#N)C(=O)N1CCC[C@@H](n2nc(-c3ccc(Oc4ccccc4)cc3F)c3c(N)ncnc32)C1)N1CCN(C2COC2)CC1 [rilzabrutinib, (R)-2-[3-[4-amino-3-(2-fluoro-4-phenoxy-phenyl)pyrazolo[3,4-d]pyrimidin-1-yl]piperidine-1-carbonyl]-4-methyl-4-[4-(oxetan-3-yl)piperazin-1-yl]pent-2-enenitrile]
Week 4, omalizumab-naïve
  AAS7 = 0, Non-responder n (%): 21 (77.8) n (%)
  AAS7 = 0, OR (95% CI) for rilzabrutinib vs. placebo: 0.869
  AAS7 = 0, RRD (%) for rilzabrutinib vs. placebo (95% CI): −2.4 %
  AAS7 Post-baseline Mean (SD): 29.55 (20.68)
  Participants with AAS7 = 0, Responder n (%): 6 (22.2) n (%)
Week 5, ITT
  AAS7 % Change difference for rilzabrutinib vs. placebo LS Mean (95% CI): −0.88 (−26.37, 24.61) %
  AAS7 % Change from baseline LS Mean (SE): −54.71 (9.56) %
  AAS7 Change difference for rilzabrutinib vs. placebo LS Mean (95% CI): 1.56 (−9.31, 12.42)
  AAS7 Change from baseline LS Mean (SE): −28.04 (4.08)
  AAS7 Post-baseline Mean (SD): 25.01 (22.48)
Week 5, omalizumab-naïve
  Non-responder n (%), AAS7 = 0: 21 (56.8) n (%)
  OR (95% CI) for rilzabrutinib vs. placebo, AAS7 = 0: 0.872
  RRD (%) for rilzabrutinib vs. placebo (95% CI), AAS7 = 0: −3.4 %
  Responder n (%), AAS7 = 0: 16 (43.2) n (%)
  AAS7 % Change difference for rilzabrutinib vs. placebo LS Mean (95% CI): −1.04 (−28.01, 25.93) %
  AAS7 % Change from baseline LS Mean (SE): −55.66 (9.83) %
  AAS7 = 0, Non-responder n (%): 19 (70.4) n (%)
  AAS7 = 0, OR (95% CI) for rilzabrutinib vs. placebo: 1.079
  AAS7 = 0, RRD (%) for rilzabrutinib vs. placebo (95% CI): 1.6 %
  AAS7 Post-baseline Mean (SD): 24.55 (22.80)
  Participants with AAS7 = 0, Responder n (%): 8 (29.6) n (%)
Week 6, ITT
  AAS7 % Change difference for rilzabrutinib vs. placebo LS Mean (95% CI): 1.19 (−25.36, 27.75) %
  AAS7 % Change from baseline LS Mean (SE): −46.12 (9.92) %
  AAS7 Change from baseline LS Mean (SE): −25.61 (4.32)
  AAS7 Post-baseline Mean (SD): 27.97 (22.56)
Week 6, omalizumab-naïve
  Non-responder n (%), AAS7 = 0: 24 (64.9) n (%)
  OR (95% CI) for rilzabrutinib vs. placebo, AAS7 = 0: 0.606
  RRD (%) for rilzabrutinib vs. placebo (95% CI), AAS7 = 0: −11.4 %
  Responder n (%), AAS7 = 0: 13 (35.1) n (%)
  AAS7 % Change difference for rilzabrutinib vs. placebo LS Mean (95% CI): 2.62 (−26.14, 31.38) %
  AAS7 = 0, Non-responder n (%): 23 (85.2) n (%)
  AAS7 = 0, OR (95% CI) for rilzabrutinib vs. placebo: 0.437
  AAS7 = 0, RRD (%) for rilzabrutinib vs. placebo (95% CI): −13.0 %
  AAS7 Post-baseline Mean (SD): 28.26 (23.00)
  Participants with AAS7 = 0, Responder n (%): 4 (14.8) n (%)
Week 7, ITT
  AAS7 % Change difference for rilzabrutinib vs. placebo LS Mean (95% CI): 16.32 (−13.52, 46.16) %
  AAS7 Change difference for rilzabrutinib vs. placebo LS Mean (95% CI): 4.35 (−7.06, 15.76)
  AAS7 Change from baseline LS Mean (SE): −22.95 (4.29)
  AAS7 Post-baseline Mean (SD): 31.05 (21.43)
Week 7, omalizumab-naïve
  Non-responder n (%), AAS7 = 0: 24 (64.9) n (%)
  OR (95% CI) for rilzabrutinib vs. placebo, AAS7 = 0: 0.611
  RRD (%) for rilzabrutinib vs. placebo (95% CI), AAS7 = 0: −11.8 %
  Responder n (%), AAS7 = 0: 13 (35.1) n (%)
  AAS7 % Change difference for rilzabrutinib vs. placebo LS Mean (95% CI): 19.61 (−12.44, 51.65) %
  AAS7 = 0, OR (95% CI) for rilzabrutinib vs. placebo: 0.200
  AAS7 = 0, RRD (%) for rilzabrutinib vs. placebo (95% CI): −23.0 %
  AAS7 Post-baseline Mean (SD): 31.88 (21.51)
Week 8, ITT
  AAS7 % Change difference for rilzabrutinib vs. placebo LS Mean (95% CI): −2.51 (−32.23, 27.22) %
  AAS7 Change difference for rilzabrutinib vs. placebo LS Mean (95% CI): −1.74 (−12.55, 9.06)
  AAS7 Change from baseline LS Mean (SE): −30.07 (4.07)
  AAS7 Post-baseline Mean (SD): 24.69 (22.82)
Week 8, omalizumab-naïve
  Non-responder n (%), AAS7 = 0: 20 (54.1) n (%)
  OR (95% CI) for rilzabrutinib vs. placebo, AAS7 = 0: 1.185
  RRD (%) for rilzabrutinib vs. placebo (95% CI), AAS7 = 0: 4.2 %
  Responder n (%), AAS7 = 0: 17 (45.9) n (%)
  AAS7 % Change difference for rilzabrutinib vs. placebo LS Mean (95% CI): −4.14 (−36.36, 28.09) %
  AAS7 = 0, Non-responder n (%): 20 (74.1) n (%)
  AAS7 = 0, OR (95% CI) for rilzabrutinib vs. placebo: 0.929
  AAS7 = 0, RRD (%) for rilzabrutinib vs. placebo (95% CI): −1.3 %
  AAS7 Post-baseline Mean (SD): 24.98 (23.29)
  Participants with AAS7 = 0, Responder n (%): 7 (25.9) n (%)
Week 9, ITT
  AAS7 % Change difference for rilzabrutinib vs. placebo LS Mean (95% CI): 1.53 (−27.52, 30.59) %
  AAS7 % Change from baseline LS Mean (SE): −48.50 (10.95) %
  AAS7 Change difference for rilzabrutinib vs. placebo LS Mean (95% CI): 2.98 (−7.44, 13.40)
  AAS7 Change from baseline LS Mean (SE): −26.47 (3.93)
  AAS7 Post-baseline Mean (SD): 27.24 (21.46)
Week 9, omalizumab-naïve
  Non-responder n (%), AAS7 = 0: 24 (64.9) n (%)
  OR (95% CI) for rilzabrutinib vs. placebo, AAS7 = 0: 0.520
  RRD (%) for rilzabrutinib vs. placebo (95% CI), AAS7 = 0: −15.0 %
  Responder n (%), AAS7 = 0: 13 (35.1) n (%)
  AAS7 % Change from baseline LS Mean (SE): −47.25 (11.58) %
  AAS7 = 0, Non-responder n (%): 22 (81.5) n (%)
  AAS7 = 0, OR (95% CI) for rilzabrutinib vs. placebo: 0.431
  AAS7 = 0, RRD (%) for rilzabrutinib vs. placebo (95% CI): −15.5 %
  AAS7 Post-baseline Mean (SD): 27.96 (21.62)
  Participants with AAS7 = 0, Responder n (%): 5 (18.5) n (%)
Week 10, ITT
  AAS7 % Change difference for rilzabrutinib vs. placebo LS Mean (95% CI): −1.14 (−41.08, 38.79) %
  AAS7 % Change from baseline LS Mean (SE): −50.13 (14.94) %
  AAS7 Change difference for rilzabrutinib vs. placebo LS Mean (95% CI): 2.53 (−8.76, 13.81)
  AAS7 Change from baseline LS Mean (SE): −27.81 (4.28)
  AAS7 Post-baseline Mean (SD): 26.59 (23.15)
Week 10, omalizumab-naïve
  Non-responder n (%), AAS7 = 0: 20 (54.1) n (%)
  OR (95% CI) for rilzabrutinib vs. placebo, AAS7 = 0: 0.927
  RRD (%) for rilzabrutinib vs. placebo (95% CI), AAS7 = 0: −1.9 %
  Responder n (%), AAS7 = 0: 17 (45.9) n (%)
  AAS7 = 0, Non-responder n (%): 20 (74.1) n (%)
  AAS7 = 0, OR (95% CI) for rilzabrutinib vs. placebo: 0.616
  AAS7 = 0, RRD (%) for rilzabrutinib vs. placebo (95% CI): −9.2 %
  AAS7 Post-baseline Mean (SD): 27.70 (22.96)
  Participants with AAS7 = 0, Responder n (%): 7 (25.9) n (%)
Week 11, ITT
  AAS7 % Change difference for rilzabrutinib vs. placebo LS Mean (95% CI): 7.61 (−19.90, 35.12) %
  AAS7 Change difference for rilzabrutinib vs. placebo LS Mean (95% CI): 5.18 (−6.05, 16.41)
  AAS7 Change from baseline LS Mean (SE): −28.68 (4.16)
  AAS7 Post-baseline Mean (SD): 26.34 (24.19)
Week 11, omalizumab-naïve
  Non-responder n (%), AAS7 = 0: 20 (54.1) n (%)
  OR (95% CI) for rilzabrutinib vs. placebo, AAS7 = 0: 0.819
  RRD (%) for rilzabrutinib vs. placebo (95% CI), AAS7 = 0: −4.7 %
  Responder n (%), AAS7 = 0: 17 (45.9) n (%)
  AAS7 = 0, Non-responder n (%): 19 (70.4) n (%)
  AAS7 = 0, OR (95% CI) for rilzabrutinib vs. placebo: 0.650
  AAS7 = 0, RRD (%) for rilzabrutinib vs. placebo (95% CI): −8.6 %
  AAS7 Post-baseline Mean (SD): 27.44 (24.07)
  Participants with AAS7 = 0, Responder n (%): 8 (29.6) n (%)
Week 12, ITT
  AAS7 % Change difference for rilzabrutinib vs. placebo LS Mean (95% CI): 8.18 (−17.80, 34.16) %
  AAS7 % Change from baseline LS Mean (SE): −54.80 (9.75) %
  AAS7 Change difference for rilzabrutinib vs. placebo LS Mean (95% CI): 6.68 (−4.00, 17.35)
  AAS7 Change from baseline LS Mean (SE): −28.63 (4.01)
  AAS7 Post-baseline Mean (SD): 24.92 (22.92)
Week 12, omalizumab-naïve
  Non-responder n (%), AAS7 = 0: 24 (64.9) n (%)
  OR (95% CI) for rilzabrutinib vs. placebo, AAS7 = 0: 0.516
  RRD (%) for rilzabrutinib vs. placebo (95% CI), AAS7 = 0: −15.0 %
  Responder n (%), AAS7 = 0: 13 (35.1) n (%)
  AAS7 = 0, Non-responder n (%): 21 (77.8) n (%)
  AAS7 = 0, OR (95% CI) for rilzabrutinib vs. placebo: 0.571
  AAS7 = 0, RRD (%) for rilzabrutinib vs. placebo (95% CI): −11.2 %
  AAS7 Change difference for rilzabrutinib vs. placebo LS Mean (95% CI): 6.41 (−5.00, 17.81)
  AAS7 Change from baseline LS Mean (SE): −26.98 (4.16)
  AAS7 Post-baseline Mean (SD): 25.87 (23.04)

From patent US20260256792A1, “TREATMENT OF CHRONIC SPONTANEOUS URTICARIA BY ADMINISTERING (R)-2-[3-[4-AMINO-3-(2-FLUORO-4-PHENOXY-PHENYL)PYRAZOLO[3,4-D]PYRIMIDIN-1-YL]PIPERIDINE-1-CARBONYL]-4-METHYL-4-[4-(OXETAN-3-YL)PIPERAZIN-1-YL]PENT-2-ENENITRILE” (priority 2023, published 2026)
